Legend:
[1] = Metabolic stability in pooled dog liver microsomes; format: in vitro ADME
Description: (§1) The depletion of the parent compound and the formation of metabolites in a time-dependent manner were explored in the presence or absence of an NADPH-generating system.
(§2) 3β-Hydroxy-17(1H-benzimidazol-1-yl)androsta-5,16-diene is incubated with pooled rat, dog, monkey and human liver microsomes at a protein concentration of 0.6 mg/mL. Incubation mixture contains either 0.1 M potassium phosphate buffer pH 7.4 or the incubation buffer. Following two minutes of pre-incubation of the incubation mixture at ˜37° C., the reaction is started by the addition of an NADPH-generating system (NADPH-GS) (1 mM NADP+, 5 mM glucose-6-phosphate, 1.0 unit/mL glucose-6-phosphate dehydrogenase) or 0.1 M phosphate buffer. At the appropriate time points (0, 15, 30, 60 and 120 minutes), reactions are stopped by the addition of appropriate stop solutions (0.1% formic acid in acetonitrile). The samples are centrifuged at approximately 10 000×g for 10 minutes at 20° C. An amount of supernatant from each sample is transferred to pre-labeled HPLC vials for analysis. Samples are analyzed by LC/MS to monitor the remaining parent compound or formation of potential metabolites. On each occasion, blank sample containing TOK-001 but without microsomes, is included.

[2] = Metabolic stability in pooled human liver microsomes; format: in vitro ADME
Description: as §1, §2

[3] = Metabolic stability in pooled rat liver microsomes; format: in vitro ADME
Description: as §1, §2

[4] = Metabolic stability in pooled monkey liver microsomes; format: in vitro ADME; details: EDTA and MgCl2; for depletion (negative = increase in concentration): absence of NADPH-GS
Description: as §1, §2

[5] = Solubility in incubation medium; format: physicochemical; details: presence versus absence of MgCl2/EDTA
Text: However, the role of the divalent cation, MgCl2 in the activation of the CYP 450 activity is not well defined (Saito et al., 2006, Tamura et al., 1988).

[6] = 10 μM, EDTA and MgCl2, up to 60 minutes
[7] = 10 μM, EDTA and MgCl2, without NADPH-GS, 120 minutes
[8] = EDTA and MgCl2, up to 120 minutes

- depletion compared to the 0 minute incubation ([1]; 10 μM, 0.1 M phosphate buffer only, with NADPH-generating system, 120 minutes): ~25%
- metabolic stability ([1]; 10 μM, 0.1 M phosphate buffer only, with NADPH-generating system, up to 60 minutes): metabolically stable
- metabolic stability [1, 6]: metabolically stable
- decrease of parent compound in negative control [1, 7]: ~21%
- metabolic stability [1, 8]: metabolically stable
- recovery at 60 min, 10 μM ([1]; both sexes, dog, pooled dog liver microsomes, 10 μM, phosphate buffer, 1 mM EDTA, 3 mM MgCl2, with NADPH-generating system, 60 minutes, read-out: recovery compared to the 0 minute): ~85%
- depletion of parent compound ([2]; 10 μM, EDTA and MgCl2, absence of NADPH-GS): ~7%
- depletion of parent compound ([2]; 10 μM, EDTA and MgCl2, with NADPH-generating system, over 120 minutes): ≤ 11%
- metabolized (depletion) ([2]; 0.1 M phosphate buffer only, NADPH and time-dependent): ≥ 50%
- metabolic stability [2, 8]: metabolically stable
- recovery at 120 min, 10 μM ([2]; both sexes, human, pooled human liver microsomes, 10 μM, phosphate buffer, 1 mM EDTA, 3 mM MgCl2, with NADPH-generating system, over 120 minutes): ~89%
- metabolic stability [3, 6]: metabolically stable
- depletion of parent compound ([3]; 10 μM, EDTA and MgCl2, with NADPH-GS, 120 minutes): ~21%
- change of parent compound in negative control [3, 7]: slight increase
- metabolic stability [3, 8]: metabolically stable
- recovery at 120 min, 10 μM ([3]; both sexes, rat, pooled rat liver microsomes, pH 7.4, 10 μM, 0.1 M phosphate buffer only, with NADPH-generating system, 120 minutes, read-out: recovery compared to the 0 minute incubation): ~86%
- recovery at 60 min, 10 μM ([3]; both sexes, rat, pooled rat liver microsomes, 10 μM, phosphate buffer, 1 mM EDTA, 3 mM MgCl2, with NADPH-generating system, 60 minutes, read-out: recovery compared to the 0 minute incubation): ~85%
- recovery at 120 min, 10 μM ([3]; both sexes, rat, pooled rat liver microsomes, 10 μM, phosphate buffer, 1 mM EDTA, 3 mM MgCl2, with NADPH-generating system, 120 minutes, read-out: recovery compared to the 0 minute): ~79%
- depletion (negative = increase in concentration) ([4]; 10 μM, 30 minutes): ~−14%
- depletion (negative = increase in concentration) ([4]; 10 μM, 120 minutes): ~−12%
- depletion of parent compound ([4]; 10 μM, with NADPH-GS, 30 minutes): ~16%
- metabolic stability ([4]; up to 120 minutes): less stable
Compound: C[C@]12CC[C@H](O)CC1=CC[C@@H]1[C@@H]2CC[C@]2(C)C(n3cnc4ccccc43)=CC[C@@H]12 [Compound (1), 3β-Hydroxy-17(1H-benzimidazol-1-yl)androsta-5,16-diene]
- dissolution in incubation medium [5]: slightly better in the absence of MgCl2/EDTA

Reference: US20120282331A1, “MAMMALIAN METABOLITES OF STEROIDS” (TOKAI PHARMACEUTICALS, INC., priority 2009, published 2012)
